Experimental data as given in PubChem BioAssay AID1963858 (Molecular Pharmacology Branch, DTP, NCI, 2024).

Test system: HOP-62 multicell spheroids with HUVEC/MSC, viability
Experiment: Anticancer human tumor HOP-62 cell line growth inhibition [KRAS2];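 further: viability read after a week of compound exposure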;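 on viability, T/C: 100% = DMSO vehicle-treated spheroids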
Settings: for IC50: curve of first compound; for viability, T/C: stronger effect = lower value
Excerpt: Multicellular complex tumor spheroid response to RAS pathway inhibitors in combination with a targeted agents in patient-derived cell lines with oncogenic KRAS variants from multiple cancer types
A high-throughput screen of multi-cell type tumor spheroids was designed to identify active combinations of targeted small molecules and KRAS pathway inhibitors. Complex spheroids include a stromal component modeled by human endothelial cells (HUVEC) and fibroblasts modeled by human mesenchymal stem cells (MSCs). The concentration ranges selected for each drug and investigational agent were based upon clinically achievable concentrations if the clinical Cmax of the agent was known.
Compounds. The drugs and investigational agents: BI-3406 (NSC825286), BAY-293 (NSC824723), batoprotafib (TNO155; NSC825523), sotorasib (AMG 510; NSC818433), MRTX1257 (NSC819558), elimusertib (BAY 1895344; NSC800525), molibresib (GSK525762; NSC774829), temuterkib (LY3214996; NSC803410), venetoclax (NSC766270), alisertib (NSC759677), olaparib (NSC753686), talazoparib (NSC767125), erdafitinib (NSC781556), ipatasertib (NSC767898), cabozantinib (NSC761068), nintedanib (NSC756659), abemaciclib (NSC768073), docetaxel (NSC628503), trametinib (NSC758246), and sapanisertib (NSC764658) were obtained from the National Cancer Institute (NCI) Developmental Therapeutics Program Chemical Repository. The FDA-approved anticancer drug set is available from the Developmental Therapeutics Program. […] The stock solutions were prepared in dimethyl sulfoxide (DMSO, Sigma-Aldrich, St. Louis, MO, cat. D2650) at 800-fold the tested concentration and stored at -70 degrees C prior to their use. All drugs and investigational agents were tested over a range starting from a high concentration at or near the clinical Cmax and decreasing in half-log increments. If the clinical Cmax for an agent had not been determined, the highest concentration tested was 10 microM.
Cell Culture. All cells were maintained in an incubator at 37 degrees C and 5% CO2 with 95% humidity. The PDC lines were cultured according to standard operating procedures established by the NCI PDMR (https://pdmr.cancer.gov/sops/default.htm). Briefly, all PDCs were thawed and cultured in Matrigel-coated flasks prepared with a working solution of 1X Ham's F-12 nutrient mix, without supplementation (Invitrogen, Waltham, MA, cat. 11765054), 100 U/mL penicillin-streptomycin (Invitrogen, cat. 15140122), and 2.5% Matrigel (Corning Inc., Corning, NY, cat. 354248) for the first three passages. All PDCs were cultured in complete DMEM/F-12 media containing advanced DMEM/F-12 (Invitrogen, cat. 12634028), 4.9% defined fetal bovine serum, heat inactivated (HyClone Laboratories Inc., Logan, UT, cat. SH30070.03HI), 389 ng/mL hydrocortisone (Sigma-Aldrich, cat. H4001), 9.7 ng/mL human EGF recombinant protein (Invitrogen, cat. PHG0313), 23.4 microg/mL adenine (Sigma-Aldrich, cat. A2786), 97.3 U/mL penicillin-streptomycin (Invitrogen, cat. 15140122), 1.9 mM L-glutamine (Invitrogen, cat. 25030081), and 9.7 microM Y-27632 dihydrochloride (Tocris Bioscience, Bristol, United Kingdom, cat. 1254). The PDCs were cultured in complete DMEM/F12 media without 9.7 microM Y-27632 dihydrochloride for at least two passages prior to the screen. The established cell line HOP-62 was cultured in RPMI 1640 medium, HEPES (Invitrogen, cat. 22400105) with 10% defined fetal bovine serum (HyClone Laboratories Inc., cat. SH30070.03) and 2 mM L-glutamine (Invitrogen, cat. 25030081). The pooled donor HUVEC were cultured in endothelial cell growth medium 2 (PromoCell, Heidelberg, Germany, cat. C-22011) and the hMSC were cultured in mesenchymal stem cell growth medium 2 (PromoCell, cat. C-28009). For all experiments, HUVEC and hMSC were used at passages </=5, while the malignant cell lines were used at passages </=15. […]

[1] = second compound 0.1 µM, first compound 0.0316 µM
[2] = second compound 0.1 µM, first compound 0.1 µM
[3] = second compound 0.1 µM, first compound 0.316 µM
[4] = second compound 0.1 µM, first compound 1 µM
[5] = second compound 0.1 µM, first compound 3.16 µM
[6] = second compound 0.1 µM, first compound 10 µM
[7] = second compound 0.316 µM, first compound 0.0316 µM
[8] = second compound 0.316 µM, first compound 0.1 µM
[9] = second compound 0.316 µM, first compound 0.316 µM
[10] = second compound 0.316 µM, first compound 1 µM
[11] = second compound 0.316 µM, first compound 3.16 µM
[12] = second compound 0.316 µM, first compound 10 µM
[13] = second compound 1 µM, first compound 0.0316 µM
[14] = second compound 1 µM, first compound 0.1 µM
[15] = second compound 1 µM, first compound 0.316 µM
[16] = second compound 1 µM, first compound 1 µM
[17] = second compound 1 µM, first compound 3.16 µM
[18] = second compound 1 µM, first compound 10 µM
[19] = second compound 3.16 µM, first compound 0.0316 µM
[20] = second compound 3.16 µM, first compound 0.1 µM
[21] = second compound 3.16 µM, first compound 0.316 µM
[22] = second compound 3.16 µM, first compound 1 µM
[23] = second compound 3.16 µM, first compound 3.16 µM
[24] = second compound 3.16 µM, first compound 10 µM

| Structure (SMILES) | IC50 (second compound 0.1 µM) [nM] | IC50 (second compound 0.316 µM) [nM] | IC50 (second compound 1 µM) [nM] | IC50 (second compound 3.16 µM) [nM] | viability, T/C [1] [%] | viability, T/C [2] [%] | viability, T/C [3] [%] | viability, T/C [4] [%] | viability, T/C [5] [%] | viability, T/C [6] [%] | viability, T/C [7] [%] | viability, T/C [8] [%] | viability, T/C [9] [%] | viability, T/C [10] [%] | viability, T/C [11] [%] | viability, T/C [12] [%] | viability, T/C [13] [%] | viability, T/C [14] [%] | viability, T/C [15] [%] | viability, T/C [16] [%] | also measured |
| --- | --- | --- | --- | --- | --- | --- | --- | --- | --- | --- | --- | --- | --- | --- | --- | --- | --- | --- | --- | --- | --- |
| COC(=O)c1ccc2c(C(=Nc3ccc(N(C)C(=O)CN4CCN(C)CC4)cc3)c3ccccc3)c(O)[nH]c2c1 + C=CC(=O)N1CCN(c2nc(=O)n(-c3c(C)ccnc3C(C)C)c3nc(-c4c(O)cccc4F)c(F)cc23)C(C)C1 | < 31.6 | < 31.6 | < 31.6 | < 31.6 | 40.2 | 30.1 | 25.5 | 23.3 | 24.8 | 13 | 36.4 | 29.9 | 26.8 | 25.7 | 21.7 | 14.3 | 37.2 | 32.5 | 26.1 | 26.9 | IC50 (second compound 10 µM): < 31.6 nM; viability, T/C [17]: 26.7%; viability, T/C [18]: 2.61%; viability, T/C [19]: 40.5%; viability, T/C [20]: 31.5%; viability, T/C [21]: 29.9%; viability, T/C [22]: 27.5%; viability, T/C [23]: 22.7%; viability, T/C [24]: 2.66%; viability, T/C (second compound 10 µM, first compound 0.0316 µM): 47%; viability, T/C (second compound 10 µM, first compound 0.1 µM): 36.2%; viability, T/C (second compound 10 µM, first compound 0.316 µM): 55.4%; viability, T/C (second compound 10 µM, first compound 1 µM): 30.9%; viability, T/C (second compound 10 µM, first compound 3.16 µM): 10.2%; viability, T/C (second compound 10 µM, first compound 10 µM): 1.93% |
| CC1(C)CCC(CN2CCN(c3ccc(C(=O)NS(=O)(=O)c4ccc(NCC5CCOCC5)c([N+](=O)[O-])c4)c(Oc4cnc5[nH]ccc5c4)c3)CC2)=C(c2ccc(Cl)cc2)C1 + C=CC(=O)N1CCN(c2nc(OCC3CCCN3C)nc3c2CCN(c2cccc4cccc(C)c24)C3)CC1CC#N | < 31.6 | < 31.6 | < 31.6 | < 31.6 | 48.9 | 41.4 | 37.8 | 36.4 | 37.2 | 21.6 | 36.6 | 41.6 | 26.4 | 38.2 | 26.9 | 16 | 24.6 | 22.6 | 27.1 | 22.9 | IC50 (second compound 0.0316 µM): 1510 nM; viability, T/C (second compound 0.0316 µM, first compound 0.0316 µM): 58.8%; viability, T/C (second compound 0.0316 µM, first compound 0.1 µM): 54.1%; viability, T/C (second compound 0.0316 µM, first compound 0.316 µM): 54.9%; viability, T/C (second compound 0.0316 µM, first compound 1 µM): 56%; viability, T/C (second compound 0.0316 µM, first compound 3.16 µM): 39.5%; viability, T/C (second compound 0.0316 µM, first compound 10 µM): 22.7%; viability, T/C [17]: 24.1%; viability, T/C [18]: 5.4%; viability, T/C [19]: 1.22%; viability, T/C [20]: 0.15%; viability, T/C [21]: 0.14%; viability, T/C [22]: 0.16%; viability, T/C [23]: 0.14%; viability, T/C [24]: 0.18% |
